Test system: 422866-222-R5-J1-PDC complex spheroids viability
Assay: Anticancer human tumor 422866-222-R5-J1-PDC patient-derived pancreatic adenocarcinoma cell line growth inhibition [RAS]
Conditions: for IC50: curve of first compound; for viability, T/C: stronger effect = lower value
How it was run: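 Multi-cell-type spheroids: tumor cells plus HUVEC endothelial cells and mesenchymal stem cells. RAS-pathway inhibitors were combined with targeted agents, each dosed in half-log steps down from clinical Cmax, or from 10 microM when Cmax was unknown.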

[1] = second compound 0.000949 µM, first compound 0.0316 µM
[2] = second compound 0.000949 µM, first compound 0.1 µM
[3] = second compound 0.000949 µM, first compound 0.316 µM
[4] = second compound 0.000949 µM, first compound 1 µM
[5] = second compound 0.000949 µM, first compound 3.16 µM
[6] = second compound 0.000949 µM, first compound 10 µM
[7] = second compound 0.003 µM, first compound 0.0316 µM
[8] = second compound 0.003 µM, first compound 0.1 µM
[9] = second compound 0.003 µM, first compound 0.316 µM
[10] = second compound 0.003 µM, first compound 1 µM
[11] = second compound 0.003 µM, first compound 3.16 µM
[12] = second compound 0.003 µM, first compound 10 µM
[13] = second compound 0.00949 µM, first compound 0.0316 µM
[14] = second compound 0.00949 µM, first compound 0.1 µM
[15] = second compound 0.00949 µM, first compound 0.316 µM
[16] = second compound 0.00949 µM, first compound 1 µM
[17] = second compound 0.00949 µM, first compound 3.16 µM
[18] = second compound 0.00949 µM, first compound 10 µM
[19] = second compound 0.03 µM, first compound 0.0316 µM
[20] = second compound 0.03 µM, first compound 0.1 µM
[21] = second compound 0.03 µM, first compound 0.316 µM
[22] = second compound 0.03 µM, first compound 1 µM
[23] = second compound 0.03 µM, first compound 3.16 µM
[24] = second compound 0.03 µM, first compound 10 µM
[25] = second compound 0.0949 µM, first compound 0.0316 µM
[26] = second compound 0.0949 µM, first compound 0.1 µM
[27] = second compound 0.0949 µM, first compound 0.316 µM
[28] = second compound 0.0949 µM, first compound 1 µM
[29] = second compound 0.0949 µM, first compound 3.16 µM
[30] = second compound 0.0949 µM, first compound 10 µM
[31] = second compound 0.3 µM, first compound 0.0316 µM
[32] = second compound 0.3 µM, first compound 0.1 µM
[33] = second compound 0.3 µM, first compound 0.316 µM
[34] = second compound 0.3 µM, first compound 1 µM
[35] = second compound 0.3 µM, first compound 3.16 µM
[36] = second compound 0.3 µM, first compound 10 µM
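Also: spheroids exposed to compounds for 7 days.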
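For viability, T/C in this document: 100% = DMSO vehicle control viability.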

Structure (SMILES): CC(=O)OC12COC1CC(O)C1(C)C(=O)C(O)C3=C(C)C(OC(=O)C(O)C(NC(=O)OC(C)(C)C)c4ccccc4)CC(O)(C(OC(=O)c4ccccc4)C21)C3(C)C (centres undefined) + CCn1c(-c2cc(N3CCN(C)CC3)cnc2C(C)OC)c2c3cc(ccc31)-c1csc(n1)CC(NC(=O)C1CC1C)C(=O)N1CCCC(N1)C(=O)OCC(C)(C)C2
- IC50 (second compound 0.000949 µM): < 31.6 nM
- IC50 (second compound 0.003 µM): < 31.6 nM
- IC50 (second compound 0.00949 µM): < 31.6 nM
- IC50 (second compound 0.03 µM): < 31.6 nM
- IC50 (second compound 0.0949 µM): < 31.6 nM
- IC50 (second compound 0.3 µM): < 31.6 nM
- viability, T/C [1]: 23.3%
- viability, T/C [2]: 25.6%
- viability, T/C [3]: 26.9%
- viability, T/C [4]: 31.8%
- viability, T/C [5]: 29.4%
- viability, T/C [6]: 23.2%
- viability, T/C [7]: 18.8%
- viability, T/C [8]: 19.6%
- viability, T/C [9]: 18.6%
- viability, T/C [10]: 20.6%
- viability, T/C [11]: 21.5%
- viability, T/C [12]: 20.5%
- viability, T/C [13]: 14.5%
- viability, T/C [14]: 15.8%
- viability, T/C [15]: 16.4%
- viability, T/C [16]: 17.7%
- viability, T/C [17]: 17.3%
- viability, T/C [18]: 18.3%
- viability, T/C [19]: 16.3%
- viability, T/C [20]: 18.6%
- viability, T/C [21]: 16.1%
- viability, T/C [22]: 17%
- viability, T/C [23]: 16.9%
- viability, T/C [24]: 19.4%
- viability, T/C [25]: 17.9%
- viability, T/C [26]: 16.5%
- viability, T/C [27]: 18.7%
- viability, T/C [28]: 17.8%
- viability, T/C [29]: 17%
- viability, T/C [30]: 22.1%
- viability, T/C [31]: 16.7%
- viability, T/C [32]: 17.1%
- viability, T/C [33]: 18.4%
- viability, T/C [34]: 17.8%
- viability, T/C [35]: 19.9%
- viability, T/C [36]: 21.5%

Structure (SMILES): CCC(CC)c1cc(NC2CCC(N)C2)n2nccc2n1 (centres undefined) + CCn1c(-c2cc(N3CCN(C)CC3)cnc2C(C)OC)c2c3cc(ccc31)-c1csc(n1)CC(NC(=O)C1CC1C)C(=O)N1CCCC(N1)C(=O)OCC(C)(C)C2
- IC50 (second compound 0.000949 µM): < 31.6 nM
- IC50 (second compound 0.003 µM): < 31.6 nM
- IC50 (second compound 0.00949 µM): < 31.6 nM
- IC50 (second compound 0.03 µM): < 31.6 nM
- IC50 (second compound 0.0949 µM): < 31.6 nM
- IC50 (second compound 0.3 µM): < 31.6 nM
- viability, T/C [1]: 36.1%
- viability, T/C [2]: 34.6%
- viability, T/C [3]: 36.9%
- viability, T/C [4]: 38.4%
- viability, T/C [5]: 15.5%
- viability, T/C [6]: 51.6%
- viability, T/C [7]: 22.1%
- viability, T/C [8]: 24.1%
- viability, T/C [9]: 24.7%
- viability, T/C [10]: 27.2%
- viability, T/C [11]: 15.2%
- viability, T/C [12]: 50.2%
- viability, T/C [13]: 23.4%
- viability, T/C [14]: 24.7%
- viability, T/C [15]: 23.6%
- viability, T/C [16]: 25.8%
- viability, T/C [17]: 17.8%
- viability, T/C [18]: 46.1%
- viability, T/C [19]: 20.7%
- viability, T/C [20]: 20.4%
- viability, T/C [21]: 24.9%
- viability, T/C [22]: 27.7%
- viability, T/C [23]: 17.4%
- viability, T/C [24]: 57.6%
- viability, T/C [25]: 21.6%
- viability, T/C [26]: 22.1%
- viability, T/C [27]: 26.9%
- viability, T/C [28]: 32.8%
- viability, T/C [29]: 18.4%
- viability, T/C [30]: 49.6%
- viability, T/C [31]: 22.4%
- viability, T/C [32]: 22.3%
- viability, T/C [33]: 25.7%
- viability, T/C [34]: 32.3%
- viability, T/C [35]: 22.3%
- viability, T/C [36]: 51.4%
